Experimental data published in US4370340A, “Benzothiazol-2-one-3-alkanoic acids and esters and aldose reductase inhibiting compositions thereof” (Fujisawa Pharmaceutical Co., Ltd., priority 1979, dated 1983).
pIC50: −log10 of the molar value.

Each compound was assayed against T1, rabbit lens aldose reductase (Oryctolagus cuniculus, UniProt P15122) (assay: Inhibitory effect on rabbit lens aldose reductase). Conditions: not given.
T1 construct: aldose reductase prepared from rabbit lens; from tissue; host or cells: rabbit lens
Format: biochemical

| SMILES | pIC50 |
| --- | --- |
| O=C(O)Cn1c(=O)sc2cc(Cl)ccc21 [compound 12] | 6.39 |

Same assay, conditions: aldose reductase prepared from rabbit lens; graphically calculated from inhibitory effect at various concentrations; read-out: 50% Inhibitory concentration (IC50)

| SMILES | pIC50 |
| --- | --- |
| O=C(O)Cn1c(=O)sc2cc(-c3ccccc3)c(Cl)cc21 [compound 2] | 7.54 |
| O=C(O)Cn1c(=O)sc2cc(Br)c(Cl)cc21 [Test Compound 8, 2-Oxo-5-chloro-6-bromo-3-benzothiazolineacetic acid] | 7.30 |
| O=C(O)Cn1c(=O)sc2c(Cl)c(-c3ccccc3)ccc21 [Test Compound 5, 2-Oxo-6-phenyl-7-chloro-3-benzothiazolineacetic acid] | 6.92 |
| O=C(O)Cn1c(=O)sc2cc(Cl)c(Cl)cc21 [Test Compound 15, 2-Oxo-5,6-dichloro-3-benzothiazolineacetic acid] | 7.42 |
| O=C(O)CN1C(=O)C(=O)c2ccc(Cl)cc21 [Test Compound 13, 2,3-dioxo-6-chloro-1-indolineacetic acid] | 6.52 |
| O=C(O)Cn1c(=O)sc2cc(C3CCCCC3)c(Cl)cc21 [Test Compound 6, 2-Oxo-5-chloro-6-cyclohexyl-3-benzothiazolineacetic acid] | 6.85 |
| O=C(O)Cn1c(=O)sc2ccc(Cl)cc21 [Test Compound 10, 2-Oxo-5-chloro-3-benzothiazolineacetic acid] | 6.70 |
| O=C(O)Cn1c(=O)sc2cc(Oc3ccccc3)ccc21 [Test Compound 3, 2-Oxo-6-phenoxy-3-benzothiazolineacetic acid] | 6.16 |
| O=C(O)Cn1c(=O)sc2cc(Oc3ccccc3)c(Cl)cc21 [Test Compound 1, 2-Oxo-5-chloro-6-phenoxy-3-benzothiazolineacetic acid] | 7.30 |

Next, values leading:

| pIC50 | SMILES |
| --- | --- |
| 7.31 | O=C(O)Cn1c(=O)oc2cc(-c3ccccc3)c(Cl)cc21 [compound 7] |
| 6.57 | O=C(O)Cn1c(=O)sc2cc(Oc3ccccc3Cl)ccc21 [compound 4] |
| 7.48 | Cc1cc2c(cc1-c1ccccc1)sc(=O)n2CC(=O)O [compound 14] |
| 7.00 | Nc1cc2sc(=O)n(CC(=O)O)c2cc1Cl [compound 17] |
| 6.57 | O=C(O)CN1C(=O)Cc2ccc(Cl)cc21 [compound 9] |
| 6.92 | O=C(O)Cn1c(=O)sc2cc([N+](=O)[O-])c(Cl)cc21 [compound 16] |
| 6.60 | O=C(O)Cn1c(=O)oc2ccc(Cl)cc21 [compound 11] |
